We go through ten molecules from ChEMBL document CHEMBL1129022, “Synthesis and antibacterial activity of new tropone-substituted phenyloxazolidinone antibacterial agents 2. Modification of the phenyl ring the potentiating effect of fluorine substitution on in vivo activity” (1996).

For orientation: MIC means the least concentration at which growth counts as inhibited. Higher therefore signals a need for much substance. By ED50 is commonly meant the dose that gives a 50% effect, or the effect in half of the subjects. One may read the inhibition as the share of the control response that was lost under treatment. A low value points to little suppression.

Holding throughout (assay type): functional
In assay [1] the test system is Staphylococcus aureus. The experiment in a line: Compound was tested in vitro for antibacterial activity against methicillin-susceptible Staphylococcus aureus UC 9213.
Assay [2] concerns Enterococcus faecalis. The experiment in a line: Compound was tested in vitro for antibacterial activity against Enterococcus faecalis UC 9217.
For assay [3], the system named is Mus musculus. The experiment in a line: Amount of drug required (mg/kg body weight/dose) to cure 50% of infected mice subjected to a lethal systemic infection with Staphylococcus aureus UC 9213.
Assay [4] has as its system Bacteroides fragilis. The experiment in a line: Compound was tested in vitro for antibacterial activity against Bacteroides fragilis UC 12199.
The subject of assay [5] is Streptococcus pneumoniae. Kind of assay: Compound was tested in vitro for antibacterial activity against Streptococcus pneumoniae UC 9912.
Assay [6] relates to Staphylococcus epidermidis. Kind of assay: Compound was tested in vitro for antibacterial activity against methicillin-resistant Staphylococcus epidermidis UC 12084.
The test system of assay [7] is Staphylococcus aureus. The experiment in a line: Compound was tested in vitro for antibacterial activity against methicillin-resistant Staphylococcus aureus UC 6685.
Assay [8] relates to Escherichia coli. The experiment in a line: Compound was tested in vitro for antibacterial activity against Escherichia coli extracts, using cell free prokaryotic transcription coupled translation (T/T) assay. Conditions: dose or concentration not given here.
Assay [9] deals with Mycobacterium tuberculosis. Kind of assay: Compound was tested in vitro for antibacterial activity against Mycobacterium tuberculosis H37Rv.
Assay [10] has as its system Escherichia coli. Kind of assay: Compound was tested in vitro for antibacterial activity against Escherichia coli extracts, using cell free prokaryotic transcription coupled translation (T/T) assay at 2 ug/mL.

In brackets after ≈: the same amount, converted by molar mass. A value given as a limit tells only on which side of the number the result lay.

For the molecule `C#CCNc1ccc(-c2ccc(N3C[C@H](CNC(C)=O)OC3=O)cc2F)ccc1=O`, the minimum inhibitory concentration (MIC) in assay [1] stood at 1 mg/L (≈ 2.44 µM); in assay [2], 0.5 mg/L (≈ 1.22 µM); in assay [4] it was 2 mg/L (≈ 4.88 µM); in [5], 0.125 mg/L (≈ 0.305 µM); in assay [6], 0.25 mg/L (≈ 0.611 µM); in assay [7] it was 0.5 mg/L (≈ 1.22 µM). For the same molecule, the ED50 in assay [3] amounted to 1.3 mg/kg.
Turning to `COc1ccc(-c2c(F)cc(N3CC(CNC(C)=O)OC3=O)cc2F)ccc1=O` (centres undefined), the MIC in assay [1] was determined as 2 mg/L (≈ 4.95 µM); in assay [2], 1 mg/L (≈ 2.47 µM); in assay [5] it was 0.5 mg/L (≈ 1.24 µM); in [6] it was 0.5 mg/L (≈ 1.24 µM). For the same molecule, the median effective dose (ED50) in [3] is 3.7 mg/kg. In [8], this molecule had an inhibition of 85%.
In the case of `COc1ccc(-c2ccc(N3CC(CNC(C)=O)OC3=O)cc2F)ccc1=O` (centres undefined), the minimum inhibitory concentration (MIC) in assay [1] amounted to 1 mg/L (≈ 2.59 µM); in assay [2], 1 mg/L (≈ 2.59 µM); in assay [5], 0.25 mg/L (≈ 0.647 µM); in assay [6], 0.5 mg/L (≈ 1.29 µM). In assay [3], the ED50 was found to be 7.7 mg/kg.
For `COc1ccc(-c2ccc(N3C[C@H](CNC(C)=O)OC3=O)cc2F)ccc1=O`, the minimal inhibitory concentration (MIC) is 1 mg/L (≈ 2.59 µM) in assay [1]; < 1 mg/L in [9]; 0.5 mg/L (≈ 1.29 µM) in assay [2]; 8 mg/L (≈ 20.7 µM) in assay [4]; 0.125 mg/L (≈ 0.324 µM) in assay [5]; 0.25 mg/L (≈ 0.647 µM) in assay [6]. In addition, 0.5 mg/L (≈ 1.29 µM) was the least that counted as inhibitory in assay [7] (MIC). In [3], this molecule displayed an ED50 of 4.1 mg/kg.
In assay [3], `CN[C@H](CC(C)C)C(=O)N[C@H]1C(=O)N[C@@H](CC(N)=O)C(=O)N[C@H]2C(=O)N[C@H]3C(=O)N[C@H](C(=O)N[C@H](C(=O)O)c4cc(O)cc(O)c4-c4cc3ccc4O)[C@H](O)c3ccc(c(Cl)c3)Oc3cc2cc(c3O[C@@H]2O[C@H](CO)[C@@H](O)[C@H](O)[C@H]2O[C@H]2C[C@](C)(N)[C@H](O)[C@H](C)O2)Oc2ccc(cc2Cl)[C@H]1O` [VANCOMYCIN] registered an ED50 of 2.2 mg/kg. In addition, in assay [5], the MIC amounted to 0.5 mg/L (≈ 0.345 µM).
On to `COc1ccc(-c2ccc(N3CC(CNC(C)=O)OC3=O)cc2C(F)(F)F)ccc1=O` (centres undefined), for which the MIC in assay [1] was determined as 32 mg/L (≈ 73.3 µM); in [2], 16 mg/L (≈ 36.7 µM); in assay [5], 4 mg/L (≈ 9.17 µM); in assay [6] it was 4 mg/L (≈ 9.17 µM). The molecule also showed an inhibition in assay [10] of 58%. For the same molecule, in assay [3], the ED50 was > 20 mg/kg.
Regarding `C/N=c1\ccc(-c2ccc(N3C[C@H](CNC(C)=O)OC3=O)cc2F)ccc1O`, the MIC in assay [1] came to 0.5 mg/L (≈ 1.3 µM); in assay [2], 0.25 mg/L (≈ 0.649 µM); in assay [4] it was 2 mg/L (≈ 5.19 µM); in assay [5], 0.125 mg/L (≈ 0.324 µM); in assay [6], 0.125 mg/L (≈ 0.324 µM); in assay [7], 0.25 mg/L (≈ 0.649 µM).
For the molecule `COc1ccc(-c2ccc(N3CC(CNC(C)=O)OC3=O)cc2Cl)ccc1=O` (centres undefined), the MIC in assay [1] is 4 mg/L (≈ 9.93 µM); in [2] it was 2 mg/L (≈ 4.96 µM); in [5], 1 mg/L (≈ 2.48 µM); in assay [6] it was 1 mg/L (≈ 2.48 µM). For the same molecule, the inhibition in assay [10] stood at 71%. Besides, the ED50 in [3] was > 20 mg/kg.
With `COc1ccc(-c2ccc(N3CC(CNC(C)=O)OC3=O)cc2)ccc1=O` (centres undefined), the MIC in [1] was 2 mg/L (≈ 5.43 µM); in [2] it was 1 mg/L (≈ 2.71 µM); in assay [5], 0.25 mg/L (≈ 0.679 µM); in [6] it was 0.5 mg/L (≈ 1.36 µM). In assay [10], this molecule returned an inhibition of 89%. In [3], this molecule had an ED50 of 12.2 mg/kg.
In the case of `COc1ccc(-c2c(F)cc(N3C[C@H](CNC(C)=O)OC3=O)cc2F)ccc1=O`, the MIC was 1 mg/L (≈ 2.47 µM) in assay [1]; 1 mg/L (≈ 2.47 µM) in [2]; 8 mg/L (≈ 19.8 µM) in assay [4]; 0.25 mg/L (≈ 0.618 µM) in assay [5]; 0.5 mg/L (≈ 1.24 µM) in assay [6]; 0.5 mg/L (≈ 1.24 µM) in assay [7]. This molecule also yielded an ED50 in [3] of 2.3 mg/kg.
